Assay results reported in ChEMBL document CHEMBL1134570, “Synthesis of and a comparative study on the inhibition of muscle and liver glycogen phosphorylases by epimeric pairs of d-gluco- and d-xylopyranosylidene-spiro-(thio)hydantoins and N-(d-glucopyranosyl) amides” (J Med Chem, 2001).
Active and inactive are the calls of the source. The rule behind the calls is not given here.

Tested on: glycogen phosphorylase, muscle form (rabbit)
Experiment: Inhibitory activity against muscle Glycogen Phosphorylase b; no inhibition
Details: Muscle tissue

- NI: inactive
SMILES: NC(=O)[C@]1(O)OC[C@@H](O)[C@H](O)C1O (stereo partly specified)
